Where two headings read alike, the source gives them in different places.
Tests used:
[1] = molecular target: Human CB2R (Cannabinoid receptor 2) (Homo sapiens, UniProt P34972); experiment: CB-2 in vitro cAMP (HTRF) assay; format: cell-based; details: HEK cells, cAMP HTRF, 250 nM forskolin; mean where tested more than once; read-out: CB2 HEK_cAMP EC50
Outline: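 Competitive HTRF read-out (d2-labelled cAMP vs cryptate antibody) quantifies cAMP in stably transfected HEK-293 cells, seeded the day before at 4E5 cells/mL. Stimulation buffer: HBSS, 5 mM HEPES, 0.1% BSA, 0.5 mM IBMX; forskolin prepared at 1.5 μM in buffer; compounds serially diluted 1/3 in DMSO.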

[2] = Mouse Fast PK/BBB: plasma and brain concentration; format: in vivo, Male C57bl/6j mice; details: mice; for concentration at 4 h / concentration at 1 h: male, C57bl/6j, mouse; for concentration at 4 h / Brain Mean Conc. ± Std. Dev: 4 hr
Protocol: Male Sprague Dawley rats are ordered from Charles River (225-250 gm upon arrival). They are fed standard chow diet (Purina 5001) and housed 2 per cage. Male C57bl/6j mice are ordered from Charles River at 22-25 g and housed 3 per cage. They are fed standard chow (Purina 5001). All animals are housed in a temperature-controlled room with 12-hour light/dark cycle. Animals are given food and water ad libitum, except as noted.
Test compounds are administered by oral gavage (5 ml kg^−1 or 10 ml kg^−1).
Male C57bl/6j mice were dosed with test compounds at 20 or 30 mg/kg. Plasma was collected via retro-orbital bleeding at 1 hr and 4 hrs after dosing. Whole brain without cerebellum was collected at 4 hrs after dosing. Wet brain weight was recorded before freezing. Brains were homogenized in saline and sent for analysis for determination of concentration of test compound.
Representative compounds of formula (I) of the present invention were tested according to the procedure described above, with results as listed in Table BIO-2 below.

[3] = Mouse Fast PK/BBB: plasma and brain concentration; format: in vivo, Male C57bl/6j mice; details: mice; for concentration at 1 h: male, C57bl/6j, mouse, brain, read-out: Brain Mean Conc. ± Std. Dev; for Brain Mean Conc. ± Std. Dev: 1 hr
[4] = brain (whole brain without cerebellum), dose 30 mg/kg oral, read-out: Brain Mean Conc. ± Std. Dev
[5] = plasma, dose 30 mg/kg oral, read-out: Plasma Mean Conc. ± Std. Dev
[6] = plasma, dose 20 mg/kg oral, read-out: Plasma Mean Conc. ± Std. Dev
[7] = brain (whole brain without cerebellum), dose 20 mg/kg oral, read-out: Brain Mean Conc. ± Std. Dev

Chain of Human CB2R (Cannabinoid receptor 2) (P34972 whole entry): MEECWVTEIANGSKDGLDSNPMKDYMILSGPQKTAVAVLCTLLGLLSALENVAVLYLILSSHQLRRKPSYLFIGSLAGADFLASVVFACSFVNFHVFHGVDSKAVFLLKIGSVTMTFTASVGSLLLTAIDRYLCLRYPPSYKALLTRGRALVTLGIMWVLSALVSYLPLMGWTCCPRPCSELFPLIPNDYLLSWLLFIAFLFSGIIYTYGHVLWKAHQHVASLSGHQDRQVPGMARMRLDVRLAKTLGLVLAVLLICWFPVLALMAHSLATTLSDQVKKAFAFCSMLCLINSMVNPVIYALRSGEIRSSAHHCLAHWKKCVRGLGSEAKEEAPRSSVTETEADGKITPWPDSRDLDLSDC

Structure (SMILES)	EC50 [1] [µM]	concentration at 4 h [2, 4] [ng/mL]	concentration at 1 h [2, 5] [ng/mL]	concentration at 4 h [2, 5] [ng/mL]	concentration at 1 h ([3]; dose 30 mg/kg oral) [ng/mL]	Brain Mean Conc. ± Std. Dev ([2]; dose 30 mg/kg oral)	Brain Mean Conc. ± Std. Dev ([3]; dose 30 mg/kg oral)	concentration at 1 h [2, 6] [ng/mL]	concentration at 4 h [2, 6] [ng/mL]	Brain Mean Conc. ± Std. Dev ([2]; dose 20 mg/kg oral)	Brain Mean Conc. ± Std. Dev ([3]; dose 20 mg/kg oral)	concentration at 4 h [2, 7] [ng/mL]	concentration at 1 h ([3]; dose 20 mg/kg oral) [ng/mL]
O=C(O)c1cc(F)cc(CN2CCC(n3c(C4CC4)nc4ccc(C(c5ccc(Cl)cc5)c5ccc(Cl)cc5)cc43)CC2)c1 [Example 89]	7.9	129 ± 33.2	7190 ± 488	4430 ± 227	92.6 ± 20.4	–	–	–	–	–	–	–	–
O=C(O)c1ccc(F)c(CN2CCC(n3c(C4CC4)nc4ccc(C(c5ccc(Cl)cc5)c5ccc(Cl)cc5)cc43)CC2)c1 [Example 92]	5.19	89.2 ± 27.7	11400 ± 2020	5190 ± 277	72.4 ± 11.1	–	–	–	–	–	–	–	–
O=C(O)c1ccc(CN2CCC(n3c(C4CC4)nc4ccc(C(c5ccc(Cl)cc5)c5ccc(Cl)cc5)cc43)CC2)nc1 [Example 124]	> 10	–	2020 ± 555	297 ± 107	–	BLOQ ± NA	BLOQ ± NA	–	–	–	–	–	–
O=C(O)c1cccc(CN2CCC(n3c(C4CC4)nc4ccc(C(c5ccc(Cl)cc5)c5ccc(Cl)cc5)cc43)CC2)n1 [Example 125]	9.9	–	4490 ± 1010	390 ± 157	–	BLOQ ± NA	BLOQ ± NA	–	–	–	–	–	–
O=C(O)c1ccc(CN2CCC(n3c(C4CC4)nc4ccc(C(c5ccc(Cl)cc5)c5ccc(Cl)cc5)cc43)CC2)o1 [Example 129]	> 10	–	1370 ± 749	84.6 ± 62.9	–	BLOQ ± NA	BLOQ ± NA	–	–	–	–	–	–
O=C(O)c1cccc(CN2CCC(n3c(C4CC4)nc4ccc(C(c5ccc(Cl)cc5)c5ccc(Cl)cc5)cc43)CC2)c1 [Example 148]	4.93	417 ± 50	13500 ± 273	7750 ± 3100	334 ± 108	–	–	–	–	–	–	–	–
O=C(O)c1csc(S(=O)(=O)N2CCC(n3c(C4CC4)nc4ccc(C(c5ccc(Cl)cc5)c5ccc(Cl)cc5)cc43)CC2)c1 [Example 221]	3.3	–	–	–	–	–	–	160 ± 69.7	33.8 ± 11.2	BLOQ ± NA	BLOQ ± NA	–	–
O=C(O)c1ccc(S(=O)(=O)N2CCC(n3c(C4CC4)nc4ccc(C(c5ccc(Cl)cc5)c5ccc(Cl)cc5)cc43)CC2)o1 [Example 232]	8.86	–	81.9 ± 22.7	7.11 ± 6.55	–	BLOQ ± NA	BLOQ ± NA	–	–	–	–	–	–
O=C(O)c1cccc(S(=O)(=O)N2CCC(n3c(C4CC4)nc4ccc(C(c5ccc(Cl)cc5)c5ccc(Cl)cc5)cc43)CC2)c1 [Example 242]	5.69	–	–	–	–	–	–	789	62.1 ± 20	BLOQ ± NA	BLOQ ± NA	–	–
O=S(=O)(c1cccc(O)c1)N1CCC(n2c(C3CC3)nc3ccc(C(c4ccc(Cl)cc4)c4ccc(Cl)cc4)cc32)CC1 [Example 259]	> 10	–	–	–	–	–	–	1420 ± 489	436 ± 83	BLOQ ± NA	BLOQ ± NA	–	–
O=C(O)c1ccc(S(=O)(=O)N2CCC(n3c(C4CC4)nc4ccc(C(c5ccc(Cl)cc5)c5ccc(Cl)cc5)cc43)CC2)cc1 [Example 276]	2.61	–	–	–	–	–	–	227 ± 67.2	27.7 ± 13.1	BLOQ ± NA	BLOQ ± NA	–	–
CCc1nc2ccc(C(c3ccc(Cl)cc3)c3ccc(Cl)cc3)cc2n1CC1CCN(S(=O)(=O)C(F)(F)F)CC1 [Example 315]	5.4	–	–	–	–	–	–	2870 ± 441	785 ± 191	–	–	48.4 ± 0.4	33.8 ± 5
O=S(=O)(N1CCC(Cn2c(C3CC3)nc3ccc(C(c4ccc(Cl)cc4)c4ccc(Cl)cc4)cc32)CC1)C(F)(F)F [Example 316]	3.86	–	–	–	–	–	–	3980 ± 448	247 ± 36	–	–	30.2 ± 5.2	22.9 ± 2.7
O=S(=O)(N1CCC(n2c(C3CCC3)nc3ccc(C(c4ccc(Cl)cc4)c4ccc(Cl)cc4)cc32)CC1)C(F)(F)F [Example 318]	> 10	–	–	–	–	–	–	5880 ± 1290	2130 ± 245	–	–	69.4 ± 4.4	57.8 ± 14.8
COc1ccc(C(c2ccc(OC)cc2)c2ccc3nc(C4CCC4)n(C4CCN(S(=O)(=O)C(F)(F)F)CC4)c3c2)cc1 [Example 320]	> 10	–	–	–	–	–	–	2900 ± 245	1610 ± 207	–	–	167 ± 9.4	122 ± 18.1
CCc1nc2ccc(C(c3ccc(Cl)cc3)c3ccc(Cl)cc3)cc2n1C1CCN(S(=O)(=O)C(F)(F)F)CC1 [Example 328]	> 14	–	–	–	–	–	–	2640 ± 337	1600 ± 109	–	–	99.3 ± 13.3	39.1 ± 1.95
O=S(=O)(N1CCC(n2c(C3CC3)nc3ccc(C(c4ccc(Cl)cc4)c4ccc(Cl)cc4)cc32)CC1)C(F)(F)F [Example 335]	> 10	–	–	–	–	–	–	3940 ± 480	2260 ± 822	–	–	104 ± 19	53.3 ± 14
CCc1nc2ccc(C(c3ccc(Cl)cc3)c3nccs3)cc2n1C1CCN(S(=O)(=O)C(F)(F)F)CC1 (stereo not drawn) [Example 400]	> 10	–	–	–	–	–	–	1550 ± 65.7	947 ± 191	–	–	292 ± 61	362 ± 36.9

— patent US20190031618A1, “BENZIMIDAZOLE DERIVATIVES USEFUL AS CB-1 INVERSE AGONISTS” (Janssen Pharmaceutica NV, priority 2015, published 2019)
